Experimental data published in ChEMBL document CHEMBL1201862, “PubChem BioAssay data set” (2004).
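These data come from cells grown in 96-well plates and exposed to compound for 48 hours at five concentrations. GI50 is the concentration that inhibits growth by half.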 Activity calls are given as the source filed them. Cut-off read from the data, not from the text of the source: active = GI50 up to about 1.1 µM and inactive = higher. Square brackets hold non-standard residues; d marks the D form. Peptide text beside a SMILES is read from it. * marks the point of attachment. AllylGly = C=CC[CH](N)C(=O)O; Boc = CC(C)(C)OC(=O)*; OtBu = CC(C)(C)O*

Assays:
Assay in all cases: NCI tumour cell line growth inhibition, 48 h
NCI-H226 = tested on: NCI-H226
COLO 205 = tested on: COLO 205
SF-539 = tested on: SF-539
CCRF-CEM = tested on: CCRF-CEM
IGROV-1 = tested on: IGROV-1
A498 = tested on: A498
K562 = tested on: K562
A549 = tested on: A549
TK-10 = tested on: TK-10
786-0 = tested on: 786-0
HOP-62 = tested on: HOP-62
SN12C = tested on: SN12C
HL-60 = tested on: HL-60
U-251 = tested on: U-251
SK-OV-3 = tested on: SK-OV-3
SK-MEL-5 = tested on: SK-MEL-5
SK-MEL-28 = tested on: SK-MEL-28
DU-145 = tested on: DU-145
SW-620 = tested on: SW-620
ACHN = tested on: ACHN

Measured: GI50

C=CCC(NC(=O)C(CC(=O)OC(C)(C)C)NC(=O)OC(C)(C)C)C(=O)OC (stereo not given) (Boc-Asp(OtBu)-[AllylGly]-OMe; configuration not given here)
inactive: NCI-H226 > 100 µM | COLO 205 21.1 µM | SF-539 > 100 µM | CCRF-CEM 45.8 µM | IGROV-1 > 100 µM | A498 > 100 µM | K562 47.8 µM | A549 > 100 µM | TK-10 > 100 µM | 786-0 > 100 µM | HOP-62 > 64.1 µM | SN12C > 67 µM | HL-60 30.1 µM | U-251 > 42.9 µM | SK-OV-3 > 100 µM | SK-MEL-5 27.6 µM | SK-MEL-28 47.4 µM | DU-145 > 100 µM | SW-620 56.1 µM | ACHN > 100 µM
